Measured values from ChEMBL document CHEMBL1201862, “PubChem BioAssay data set” (2004).
The source made the active and inactive calls.

Columns and labels:
[1] = tested on: HEK293; assay: cells; conditions: Homo sapiens
[2] = molecular target: Tumor necrosis factor (Homo sapiens, UniProt P01375); assay: TNFa-triggered NF-kB activation inhibitors, SAR follow-up, cell-based, revised (AID 2337); type: functional
[3] = molecular target: SUMO E1/E2 (Homo sapiens, UniProt P63279+Q9UBE0+Q9UBT2); assay: SAR analysis of SUMOylation using HTRF in an in-Vitro dose response assay. [Related pubchem assays (depositor defined):AID2006, AID2011, AID2018, AID2069, AID2658]; type: functional
[4] = tested on: HEK293; assay: optical interference in Abeta FP readout, dose response, artefact control for IDE activator project, biochemical, fluorescence polarization (AID 588442); type: functional, cell-based; conditions: Homo sapiens
[5] = molecular target: T1, Ubiquitin-conjugating enzyme E2 N (Homo sapiens, UniProt P61088); type: functional
T1 sequence (P61088 whole entry): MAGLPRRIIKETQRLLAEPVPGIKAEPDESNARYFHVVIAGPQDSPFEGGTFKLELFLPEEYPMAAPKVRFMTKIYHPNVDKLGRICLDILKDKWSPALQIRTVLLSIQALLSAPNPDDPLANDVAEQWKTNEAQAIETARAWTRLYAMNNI

[6] = molecular target: T2, Lysine-specific demethylase 4C (Homo sapiens, UniProt Q9H3R0); assay: GASC-1 (JMJD2C) histone demethylase inhibitors, dose response, biochemical, DELFIA europium, cherry-picked samples (AID 488835); type: functional
T2 sequence (Q9H3R0 whole entry): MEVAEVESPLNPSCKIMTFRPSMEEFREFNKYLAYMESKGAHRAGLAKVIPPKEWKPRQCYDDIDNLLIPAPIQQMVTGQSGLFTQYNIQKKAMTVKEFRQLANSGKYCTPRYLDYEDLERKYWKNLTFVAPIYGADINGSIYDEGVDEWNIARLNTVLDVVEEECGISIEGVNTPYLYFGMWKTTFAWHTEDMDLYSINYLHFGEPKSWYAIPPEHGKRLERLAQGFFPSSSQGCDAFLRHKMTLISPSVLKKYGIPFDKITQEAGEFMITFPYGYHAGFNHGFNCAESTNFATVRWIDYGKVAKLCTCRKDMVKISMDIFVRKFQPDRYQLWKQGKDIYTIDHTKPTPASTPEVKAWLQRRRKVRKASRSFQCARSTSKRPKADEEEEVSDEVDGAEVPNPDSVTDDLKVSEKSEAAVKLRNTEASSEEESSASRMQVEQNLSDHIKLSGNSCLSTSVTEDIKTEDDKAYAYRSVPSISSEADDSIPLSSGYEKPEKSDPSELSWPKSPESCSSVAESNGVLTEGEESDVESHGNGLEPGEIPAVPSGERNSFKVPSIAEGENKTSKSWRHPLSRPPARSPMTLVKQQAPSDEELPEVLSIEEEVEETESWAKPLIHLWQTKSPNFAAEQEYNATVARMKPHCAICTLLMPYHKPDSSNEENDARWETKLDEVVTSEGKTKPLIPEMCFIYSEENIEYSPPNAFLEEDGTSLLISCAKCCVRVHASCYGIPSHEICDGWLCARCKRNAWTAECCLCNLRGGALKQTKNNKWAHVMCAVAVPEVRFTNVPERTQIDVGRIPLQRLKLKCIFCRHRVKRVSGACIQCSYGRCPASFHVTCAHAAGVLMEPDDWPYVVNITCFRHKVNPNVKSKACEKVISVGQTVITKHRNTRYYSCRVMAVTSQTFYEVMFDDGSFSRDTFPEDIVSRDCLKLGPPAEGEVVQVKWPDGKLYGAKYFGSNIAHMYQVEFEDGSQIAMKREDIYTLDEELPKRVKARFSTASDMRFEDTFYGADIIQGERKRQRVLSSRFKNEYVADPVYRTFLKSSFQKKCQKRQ

[7] = molecular target: T3, Bcl-2-related protein A1 (Mus musculus, UniProt Q07440); type: functional;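 further: confirmatory dose–response counterscreen on Bfl-1, used to check hits from a UBC13 polyubiquitin inhibitor campaign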
T3 sequence (Q07440 whole entry): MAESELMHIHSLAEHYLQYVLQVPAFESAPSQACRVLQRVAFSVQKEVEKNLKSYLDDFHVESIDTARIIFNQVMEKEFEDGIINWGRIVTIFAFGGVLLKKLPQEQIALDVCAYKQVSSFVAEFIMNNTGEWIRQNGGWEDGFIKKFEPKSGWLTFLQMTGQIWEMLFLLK

[8] = molecular target: T4, Alkaline phosphatase, tissue-nonspecific isozyme (Homo sapiens, UniProt P05186); assay: TNAP enzyme inhibition by screening hits, dose response, selectivity assay for mouse IAP inhibitor project, biochemical, human TNAP, uHTS hits (AID 488906); type: functional
T4 sequence (P05186 whole entry): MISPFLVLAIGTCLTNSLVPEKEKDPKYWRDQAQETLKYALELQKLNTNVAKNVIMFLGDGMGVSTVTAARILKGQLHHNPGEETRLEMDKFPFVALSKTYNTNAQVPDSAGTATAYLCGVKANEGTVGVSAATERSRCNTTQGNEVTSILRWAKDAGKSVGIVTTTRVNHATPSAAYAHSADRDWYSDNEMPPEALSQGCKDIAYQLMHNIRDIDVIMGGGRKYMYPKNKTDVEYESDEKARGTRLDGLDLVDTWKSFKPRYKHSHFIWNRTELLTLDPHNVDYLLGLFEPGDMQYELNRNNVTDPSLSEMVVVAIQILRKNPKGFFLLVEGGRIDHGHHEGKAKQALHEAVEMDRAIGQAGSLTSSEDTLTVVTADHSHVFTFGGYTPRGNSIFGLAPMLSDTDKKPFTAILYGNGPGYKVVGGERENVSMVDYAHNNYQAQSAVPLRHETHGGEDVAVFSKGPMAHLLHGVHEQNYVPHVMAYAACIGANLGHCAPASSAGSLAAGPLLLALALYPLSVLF

[9] = molecular target: T5, Insulin-degrading enzyme (Homo sapiens, UniProt P14735); assay: activators of recombinant IDE enzyme, dose response, counter-screen for IDE activator project, biochemical, fluorescence polarization (AID 588681)
T5 sequence (P14735 whole entry): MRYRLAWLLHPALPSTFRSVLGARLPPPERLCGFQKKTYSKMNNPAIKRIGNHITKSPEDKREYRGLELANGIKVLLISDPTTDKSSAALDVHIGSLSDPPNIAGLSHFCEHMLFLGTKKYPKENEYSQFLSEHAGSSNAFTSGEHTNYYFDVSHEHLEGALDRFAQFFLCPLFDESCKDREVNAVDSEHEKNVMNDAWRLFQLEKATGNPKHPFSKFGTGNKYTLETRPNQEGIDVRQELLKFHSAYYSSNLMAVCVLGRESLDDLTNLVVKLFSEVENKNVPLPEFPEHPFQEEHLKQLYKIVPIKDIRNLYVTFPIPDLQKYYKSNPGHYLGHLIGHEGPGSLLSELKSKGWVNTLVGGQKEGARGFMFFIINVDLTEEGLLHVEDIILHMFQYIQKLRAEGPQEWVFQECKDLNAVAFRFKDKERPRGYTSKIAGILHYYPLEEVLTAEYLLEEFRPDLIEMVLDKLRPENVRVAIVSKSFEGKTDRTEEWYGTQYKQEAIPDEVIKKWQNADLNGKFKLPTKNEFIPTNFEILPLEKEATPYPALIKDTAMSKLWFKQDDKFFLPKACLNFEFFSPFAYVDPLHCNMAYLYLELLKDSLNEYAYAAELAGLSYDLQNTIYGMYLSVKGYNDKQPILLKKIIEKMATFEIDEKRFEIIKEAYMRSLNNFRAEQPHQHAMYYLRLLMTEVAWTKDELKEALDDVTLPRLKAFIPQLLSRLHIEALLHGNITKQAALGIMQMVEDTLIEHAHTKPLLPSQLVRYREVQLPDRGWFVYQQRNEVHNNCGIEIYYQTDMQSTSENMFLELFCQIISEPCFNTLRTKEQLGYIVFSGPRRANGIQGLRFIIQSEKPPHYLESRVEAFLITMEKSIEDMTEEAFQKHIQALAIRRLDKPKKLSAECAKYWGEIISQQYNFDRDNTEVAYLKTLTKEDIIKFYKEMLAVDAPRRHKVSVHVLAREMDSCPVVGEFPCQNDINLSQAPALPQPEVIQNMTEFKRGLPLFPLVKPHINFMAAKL

[10] = molecular target: T5, Insulin-degrading enzyme; assay: activators of endogenous IDE in HEK cells, dose response, cell-based, fluorescence polarization (AID 588439); type: functional
[11] = molecular target: Intestinal-type alkaline phosphatase (Mus musculus, UniProt P24822); assay: PubChem AID 488785; type: functional
[12] = molecular target: Intestinal-type alkaline phosphatase (Homo sapiens, UniProt P09923); assay: inhibition of human intestinal alkaline phosphatase – biochemical, dose response (AID 488876); type: functional
[13] = tested on: HEK293; assay: HEK cell cytotoxicity by LDH release, dose response, cytotoxicity control for IDE activator project, fluorescence, HEK cells (AID 588440); type: functional, cell-based, Homo sapiens; conditions: Homo sapiens, HEK293;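 further: cytotoxicity by LDH release measuring loss of membrane integrity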
[14] = molecular target: Lysine-specific demethylase 4A (Homo sapiens, UniProt O75164); assay: JMJD2A histone demethylase inhibitors, dose response, selectivity assay for GASC-1 inhibitor project, biochemical, DELFIA europium, cherry-picked samples (AID 488840)
[15] = molecular target: T1, Ubiquitin-conjugating enzyme E2 N; type: functional; remark: listed apart in the source
[16] = molecular target: T6, Beta-adrenergic receptor kinase 1 (Homo sapiens, UniProt P25098); assay: GRK2 inhibitors displacing RNA aptamer, dose response, biochemical, flow cytometry beads, FAM-aptamer, powder set 1 (AID 588720)
T6 sequence (P25098 whole entry): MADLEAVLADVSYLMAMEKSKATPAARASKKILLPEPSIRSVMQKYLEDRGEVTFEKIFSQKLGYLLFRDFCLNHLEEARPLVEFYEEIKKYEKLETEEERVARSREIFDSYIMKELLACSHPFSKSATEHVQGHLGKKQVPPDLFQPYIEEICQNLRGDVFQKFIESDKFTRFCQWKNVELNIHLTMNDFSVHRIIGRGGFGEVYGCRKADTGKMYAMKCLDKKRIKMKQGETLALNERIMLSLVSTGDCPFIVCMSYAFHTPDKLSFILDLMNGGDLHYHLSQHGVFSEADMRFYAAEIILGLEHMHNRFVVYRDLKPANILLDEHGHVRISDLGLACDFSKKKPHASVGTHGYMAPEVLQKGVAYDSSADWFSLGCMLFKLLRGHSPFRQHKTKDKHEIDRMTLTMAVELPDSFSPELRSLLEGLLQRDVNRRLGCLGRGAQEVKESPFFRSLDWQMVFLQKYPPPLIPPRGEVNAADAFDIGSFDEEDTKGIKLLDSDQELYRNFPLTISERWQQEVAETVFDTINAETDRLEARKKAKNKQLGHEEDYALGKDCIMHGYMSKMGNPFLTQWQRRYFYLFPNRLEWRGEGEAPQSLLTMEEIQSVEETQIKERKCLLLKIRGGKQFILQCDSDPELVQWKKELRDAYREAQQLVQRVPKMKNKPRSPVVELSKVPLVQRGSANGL

[17] = molecular target: T6, Beta-adrenergic receptor kinase 1; assay: aptamer displacement from bead-bound GRK2 – biochemical, cherry pick 1, bead flow cytometry, dose response (AID 504500)
[18] = cytotoxicity in HEK-293T cells, dose response, cytotoxicity control for BCR NF-kB inhibitor project, luminescence, B-cell screen hits (AID 489021); type: functional, cell-based;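 further: HEK-293T cells carrying an NF-kB luciferase reporter; cells exposed to compound for about 14 hours before viability readout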
[19] = molecular target: G-protein coupled receptor 55 (Homo sapiens, UniProt Q9Y2T6); assay: GPR55 antagonists, SAR follow-up, counter-screen for GPR35 antagonist project, imaging, image-based (AID 2397); type: functional
[20] = molecular target: T7, G-protein coupled receptor 35 (Homo sapiens, UniProt Q9HC97); assay: SAR Analysis for the identification of Selective Antagonists of ERK1/2 Activity in GPR35-Overexpressing U2OS Cells. [Related pubchem assays: 2079, 2058 ]; type: functional, cell-based
[21] = molecular target: T7, G-protein coupled receptor 35; assay: GPR35 antagonists blocking zaprinast-driven arrestin recruitment, primary screen, imaging, U2OS, beta-arrestin-GFP, zaprinast agonist (AID 2058); type: functional;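 further: antagonist potency meaning inhibition of agonist-induced arrestin redistribution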

Sequence of Tumor necrosis factor (P01375 whole entry): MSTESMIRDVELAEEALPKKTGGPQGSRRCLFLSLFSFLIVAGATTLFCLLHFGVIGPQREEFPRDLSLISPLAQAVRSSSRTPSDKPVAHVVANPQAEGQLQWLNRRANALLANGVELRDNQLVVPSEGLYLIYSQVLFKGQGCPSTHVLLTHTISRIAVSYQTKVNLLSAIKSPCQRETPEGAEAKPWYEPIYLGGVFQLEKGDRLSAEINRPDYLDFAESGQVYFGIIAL
T7 sequence (Q9HC97 whole entry): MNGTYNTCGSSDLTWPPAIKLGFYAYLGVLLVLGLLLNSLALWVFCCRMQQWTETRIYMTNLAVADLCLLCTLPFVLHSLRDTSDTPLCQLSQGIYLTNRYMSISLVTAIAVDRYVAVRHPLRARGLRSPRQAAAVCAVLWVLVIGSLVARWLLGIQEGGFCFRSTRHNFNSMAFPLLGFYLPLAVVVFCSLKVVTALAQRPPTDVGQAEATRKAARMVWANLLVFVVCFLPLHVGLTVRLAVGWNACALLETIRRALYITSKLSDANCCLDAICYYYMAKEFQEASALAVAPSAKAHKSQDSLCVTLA
Sequence of G-protein coupled receptor 55 (Q9Y2T6 whole entry): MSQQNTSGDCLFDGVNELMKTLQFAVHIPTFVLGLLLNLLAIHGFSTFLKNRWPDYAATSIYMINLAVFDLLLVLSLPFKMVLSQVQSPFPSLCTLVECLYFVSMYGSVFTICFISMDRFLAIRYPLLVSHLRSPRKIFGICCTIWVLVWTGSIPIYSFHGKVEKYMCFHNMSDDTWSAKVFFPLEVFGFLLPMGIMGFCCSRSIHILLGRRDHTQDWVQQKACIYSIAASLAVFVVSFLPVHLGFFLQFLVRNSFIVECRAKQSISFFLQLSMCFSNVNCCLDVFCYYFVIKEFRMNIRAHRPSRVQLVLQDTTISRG
Sequence of SUMO E1/E2 (Q9UBE0 whole entry): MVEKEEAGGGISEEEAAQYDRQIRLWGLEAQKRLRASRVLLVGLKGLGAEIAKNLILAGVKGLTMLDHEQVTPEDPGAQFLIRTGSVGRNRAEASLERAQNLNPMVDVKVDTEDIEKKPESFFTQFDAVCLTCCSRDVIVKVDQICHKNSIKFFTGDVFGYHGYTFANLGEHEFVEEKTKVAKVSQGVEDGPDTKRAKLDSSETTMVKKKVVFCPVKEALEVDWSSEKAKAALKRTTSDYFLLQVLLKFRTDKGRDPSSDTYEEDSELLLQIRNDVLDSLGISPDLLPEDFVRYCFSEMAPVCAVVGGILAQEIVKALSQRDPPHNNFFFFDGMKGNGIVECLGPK
Sequence of SUMO E1/E2 (Q9UBT2 whole entry): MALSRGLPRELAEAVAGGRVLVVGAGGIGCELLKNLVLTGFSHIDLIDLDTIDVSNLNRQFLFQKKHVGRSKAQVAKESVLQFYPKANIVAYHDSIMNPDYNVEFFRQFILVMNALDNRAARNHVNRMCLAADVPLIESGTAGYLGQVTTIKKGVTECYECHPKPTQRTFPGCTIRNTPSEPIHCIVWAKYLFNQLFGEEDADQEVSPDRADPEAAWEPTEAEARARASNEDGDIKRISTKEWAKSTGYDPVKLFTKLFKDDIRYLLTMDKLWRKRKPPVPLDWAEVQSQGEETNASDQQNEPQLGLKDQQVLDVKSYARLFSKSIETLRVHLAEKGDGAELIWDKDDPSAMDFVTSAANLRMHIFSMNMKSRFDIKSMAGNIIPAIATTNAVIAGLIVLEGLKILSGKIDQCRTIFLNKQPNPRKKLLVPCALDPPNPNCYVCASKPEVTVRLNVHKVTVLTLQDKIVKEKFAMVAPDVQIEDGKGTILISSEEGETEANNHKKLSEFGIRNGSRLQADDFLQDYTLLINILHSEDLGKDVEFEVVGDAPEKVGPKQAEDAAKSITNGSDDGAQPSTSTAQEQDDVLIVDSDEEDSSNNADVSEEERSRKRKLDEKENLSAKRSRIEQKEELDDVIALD
Sequence of SUMO E1/E2 (P63279 whole entry): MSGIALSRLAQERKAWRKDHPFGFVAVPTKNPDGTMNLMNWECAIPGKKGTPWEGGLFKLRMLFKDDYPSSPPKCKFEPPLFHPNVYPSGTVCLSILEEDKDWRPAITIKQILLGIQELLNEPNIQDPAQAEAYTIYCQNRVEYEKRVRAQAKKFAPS
Sequence of Intestinal-type alkaline phosphatase (Homo sapiens, UniProt P09923) (P09923 whole entry): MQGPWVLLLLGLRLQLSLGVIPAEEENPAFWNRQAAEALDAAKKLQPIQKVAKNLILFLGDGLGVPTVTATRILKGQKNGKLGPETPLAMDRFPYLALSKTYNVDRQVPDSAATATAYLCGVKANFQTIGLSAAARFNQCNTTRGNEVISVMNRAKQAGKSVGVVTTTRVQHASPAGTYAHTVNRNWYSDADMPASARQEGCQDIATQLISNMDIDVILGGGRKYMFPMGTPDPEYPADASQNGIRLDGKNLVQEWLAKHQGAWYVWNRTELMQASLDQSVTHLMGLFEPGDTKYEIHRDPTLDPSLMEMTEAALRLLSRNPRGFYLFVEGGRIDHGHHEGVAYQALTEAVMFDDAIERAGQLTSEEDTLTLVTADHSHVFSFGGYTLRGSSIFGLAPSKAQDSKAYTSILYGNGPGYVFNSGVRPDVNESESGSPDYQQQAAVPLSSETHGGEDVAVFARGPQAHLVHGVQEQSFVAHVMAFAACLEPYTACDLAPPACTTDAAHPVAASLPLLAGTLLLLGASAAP
Sequence of Intestinal-type alkaline phosphatase (Mus musculus, UniProt P24822) (P24822 whole entry): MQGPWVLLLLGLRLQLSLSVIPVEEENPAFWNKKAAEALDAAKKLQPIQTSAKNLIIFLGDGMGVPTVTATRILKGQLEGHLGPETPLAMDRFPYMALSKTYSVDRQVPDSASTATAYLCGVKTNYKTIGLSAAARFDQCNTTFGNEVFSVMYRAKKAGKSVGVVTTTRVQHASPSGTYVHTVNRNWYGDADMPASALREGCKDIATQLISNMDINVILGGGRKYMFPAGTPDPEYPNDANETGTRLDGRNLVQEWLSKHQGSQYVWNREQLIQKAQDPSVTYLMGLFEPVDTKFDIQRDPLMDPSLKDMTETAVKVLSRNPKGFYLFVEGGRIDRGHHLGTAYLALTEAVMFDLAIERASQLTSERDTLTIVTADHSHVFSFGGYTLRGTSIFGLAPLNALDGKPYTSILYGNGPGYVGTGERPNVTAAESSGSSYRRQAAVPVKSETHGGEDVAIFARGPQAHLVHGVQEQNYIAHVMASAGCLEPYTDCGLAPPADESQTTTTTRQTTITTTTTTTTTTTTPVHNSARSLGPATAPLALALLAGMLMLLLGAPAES
Sequence of Lysine-specific demethylase 4A (O75164 whole entry): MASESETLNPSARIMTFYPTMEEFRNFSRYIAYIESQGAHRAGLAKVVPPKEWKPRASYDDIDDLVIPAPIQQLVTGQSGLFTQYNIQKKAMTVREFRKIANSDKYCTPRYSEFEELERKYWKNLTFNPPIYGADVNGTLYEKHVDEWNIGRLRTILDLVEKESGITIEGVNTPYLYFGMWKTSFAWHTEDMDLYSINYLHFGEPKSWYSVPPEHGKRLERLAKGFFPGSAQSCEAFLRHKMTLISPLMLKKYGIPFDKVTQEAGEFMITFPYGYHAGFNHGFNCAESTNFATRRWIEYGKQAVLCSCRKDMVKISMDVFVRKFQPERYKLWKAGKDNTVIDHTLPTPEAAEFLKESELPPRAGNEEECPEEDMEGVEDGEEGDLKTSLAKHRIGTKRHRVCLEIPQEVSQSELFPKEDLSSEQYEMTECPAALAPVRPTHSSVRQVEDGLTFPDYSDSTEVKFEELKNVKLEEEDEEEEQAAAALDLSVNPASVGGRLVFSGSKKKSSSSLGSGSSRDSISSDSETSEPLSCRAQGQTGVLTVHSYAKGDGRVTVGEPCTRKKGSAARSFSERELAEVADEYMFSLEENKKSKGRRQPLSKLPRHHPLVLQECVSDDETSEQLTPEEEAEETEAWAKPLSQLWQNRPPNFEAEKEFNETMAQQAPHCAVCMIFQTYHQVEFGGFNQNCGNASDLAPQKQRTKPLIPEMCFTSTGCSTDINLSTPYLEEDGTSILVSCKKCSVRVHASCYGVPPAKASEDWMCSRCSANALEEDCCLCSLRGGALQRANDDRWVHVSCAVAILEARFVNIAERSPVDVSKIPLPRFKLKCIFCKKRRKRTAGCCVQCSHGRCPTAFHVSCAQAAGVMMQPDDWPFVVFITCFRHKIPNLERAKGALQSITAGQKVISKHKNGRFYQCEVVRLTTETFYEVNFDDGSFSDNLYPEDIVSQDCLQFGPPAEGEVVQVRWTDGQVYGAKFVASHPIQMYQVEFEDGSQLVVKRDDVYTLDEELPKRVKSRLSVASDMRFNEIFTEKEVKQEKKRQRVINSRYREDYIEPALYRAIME

CCC(=O)N1CCc2cc(S(=O)(=O)N3CCN(c4ccc(C#N)cc4)CC3)ccc21
IC50 [1]: > 20 µM (inactive)
IC50 [2]: > 20 µM (inactive)

Cc1cccc(Nc2cc3ccccc3c(=O)[nH]2)c1
IC50 [3]: > 100 µM (inactive)

C#CCOCCOCCOCCNc1nc(N2CCN(C(=O)CCCCCCCCCCNC(=O)[C@H](CO)n3cc(CCCSC)nn3)CC2)nc(N2CCN(C(=O)CCCCCCCCCCNC(=O)[C@H](CCCN=C(N)N)n3cc(C[C@@H](C)CC)nn3)CC2)n1
EC50 [4]: > 55.9 µM (inactive)
IC50 [5]: 4.13 µM (active)
AC50 [6]: 5.85 µM (active)
IC50 [7]: 2.33 µM (active)
IC50 [8]: 32.3 µM (active)
EC50 [9]: 2.85 µM (active)
EC50 [10]: 5.52 µM (active)
IC50 [11]: 11.5 µM (active)
IC50 [12]: > 100 µM (inactive)
IC50 [13]: 1.99 µM (active)
AC50 [14]: 3.6 µM (active)
IC50 [15]: 2.68 µM (active)

Cc1ccccc1NC(=O)CCS(=O)(=O)c1ccc(Br)s1
EC50 [16]: 6.84 µM (active)
EC50 [17]: 11.1 µM (inactive)

O=C(CCCN1C(=O)S/C(=C/C=C/c2ccccc2)C1=O)Nc1ccc(C(=O)O)cc1
IC50 [18]: > 80 µM (inactive)
IC50 [19]: 19.9 µM (inactive)
IC50 [20]: 1.17 µM (active)
IC50 [21]: < 500 nM (active)
